Measurements reported in paper PMC4660440 (Scientific Reports, 2015).
Like-named read-outs stand apart in the source and are kept apart here.

Tests used:
[1] = test system: BimEL, ATR, caspase 3, caspase 8, caspase 9, PARP in HeLa cells; assay: Western blot analysis of apoptosis proteins; assay type: cell-based; settings: 24 h treatment; for Extent of compound-induced BimEL / Extent of compound-induced PARP / Extent of compound-induced caspase 3 / Extent of compound-induced caspase 9 / Extent of compound-induced ATR: 5 μM, untreated control 0%, etoposide-induced activation 100%
Protocol: For electrophoresis, the proteins were separated by sodium dodecyl sulfate–polyacrylamide gel electro-phoresis (SDS–PAGE). The proteins were then transferred to a nitrocellulose membrane, which was blocked with 5% skimmed milk in phosphate buffered saline Tween-20 (PBST). A specific primary antibody was added to bind the target proteins for either 1 h at room temperature or overnight at 4 °C. A horseradish peroxidase (HRP) conjugated secondary antibody was added to the membrane after the primary antibody was washed off. All signals were detected after the HRP was activated by enhanced chemiluminescence. The band intensities of Western results were quantitated with the Image Quant program (Molecular Dynamics Inc.), analyzed and graphed. The untreated controls and the etoposideinduced activation of signaling molecules were taken as 0% and 100%, respectively. Statistic analysis was performed with the uni-polar, paired Student t-test. Data were considered significant when P value was less than 0.05.

[2] = MTT cytotoxicity assay, normal hepatic cell line HL-7702; assay type: cell-based; settings: HL-7702 normal hepatic cells, human normal hepatic immortal cell line, drug exposure 48 h, mean ± SD (n = 3), read-out: Cytotoxic activity (IC50) HL-7702
Protocol: (§1) HeLa, BGC823, A-549, MCF-7 and HT-7702 cell lines were obtained from the ATCC. […] Tumor cells (3500–13,000) were seeded into 96-well microtest plates in 100 μL of culture medium per well, incubated for 48 h in the presence or absence of test compounds (8 different concentrations ranging from 100 to 0.01 μg/mL). For quantitative estimation of cytotoxicity, the (MTT) method was used, essentially performed as described previously. Briefly, cells were washed twice with PBS, fixed for 15 min in 1% glutaraldehyde solution, rinsed twice in PBS, and stained in 0.5% MTT solution for 4 h at 37 °C. […] The initial seeding densities varied among the cell lines to ensure a final absorbance reading in control (untreated) cultures within the range of 0.6–0.8 A492 units. Drug exposure was carried out for 2 days, and the IC50 value, i.e., the drug concentration that decreased the absorbance by 50%, was extrapolated from dose-response data. Each test was performed in triplicate, and the absorbance readings between the triplicates varied by no more than 10%.

HeLa cells [3] = assay: Cell cycle analysis by flow cytometry (PI); assay type: cell-based; settings: for Effect on HeLa cell cycle: 0.1, 1.0, 5.0 μM, 6, 12, 24, 48 h; for Ratio of cell cycle arrest (of total cells) / Total cell cycle arrest percentage (right peak of histogram) / Percentage of cell cycle arrest (right peak of histogram): HeLa; for Ratio of cell cycle arrest (of total cells): 0.1 μM, 6, 12, 24 and 48 h; for Total cell cycle arrest percentage (right peak of histogram) / Percentage of cell cycle arrest (right peak of histogram): 5.0 μM; for Total cell cycle arrest percentage (right peak of histogram): 48 h; for Percentage of cell cycle arrest (right peak of histogram): 12 h
Protocol: The HeLa cell line was used for cell cycle analysis. Progression through the cell cycle was assessed by flow cytometry DNA determination with Propidium Iodide (PI). […] Flow cytometric analysis was performed using a BD accur C6 flow cytometer. Analysis was with Mod FIT software.

[4] = test system: microtubules in HeLa cells; assay: Immunofluorescence of cellular microtubules; assay type: cell-based; settings: for Cellular depolymerization of microtubules: 12 and 24 h, compared with negative control 0.1% DMSO; for Appearance of microtubules after treatment: immunofluorescence
Protocol: Cells (20000 per mL) were plated a onto 6-well tissue culture plates containing 12 mm round coverslips, cultured overnight, and then treated with different drugs at […] concentrations or drug vehicle (0.1% DMSO) for 12 h and 24 h. Attached cells were permeabilized. Cytoskeletons were incubated with α-tubulin, washed twice, and incubated with FITC goat anti-mouse immunoglobulins. The coverslips were washed, and 1 μg/mL DAPI to stain chromatin was added. The mixture was incubated for 30 min. After the samples were washed, they were examined and photographed using an Olympus epifluorescence microscope. The images were recorded with a Perkin Elmer camera.

HeLa cells [5] = assay: Annexin V-FITC/PI apoptosis assay; settings: 0.1 μM, 6, 12, 24 and 48 h
Protocol: The HeLa cell line was used for cell apoptosis. Cells (20000 per mL) were incubated with several concentrations of the compounds or drugs for 6–48 h, and incubated in DMEM medium supplemented with 12% fetal calf serum (FCS), 2 mM L -glutamine, and 100 mg/L penicillin G and 100 mg/L streptomycin at 37 °C and 5% CO2. The cells were washed with PBS twice, centrifuged at 206 g for 5 min, and 5–10[5] cells were collected. Binding buffer suspension (500 μL) was added to the cells, and then 5 μL of the FITC-Annexin V mix was added. Next, 10 μL of the PI mix was added, and the suspension was mixed and kept at room temperature for 30 min in the dark. Analysis was with a BD accur C6 flow cytometer.

MCF-7 = assay: MTT cytotoxicity assay, MCF-7; assay type: cell-based; settings: mean ± SD (n = 3), read-out: Cytotoxic activity (IC50) MCF-7
Protocol: as §1

BGC-823 = assay: MTT cytotoxicity assay, BGC-823; assay type: cell-based; settings: mean ± SD (n = 3), read-out: Cytotoxic activity (IC50) BGC-823
Protocol: as §1

A549 = assay: MTT cytotoxicity assay, A549; assay type: cell-based; settings: mean ± SD (n = 3), read-out: Cytotoxic activity (IC50) A549
Protocol: as §1

topoisomerase II = assay: kDNA decatenation assay; assay type: biochemical; settings: 100 μM
Protocol: The decatenation of kDNA was assayed according to TopoGen protocol in order to determine topoisomerase II activity. The substrate kDNA (200 ng) and 100 μM drugs were combined in assay buffer and incubated for 10 min on ice. Next, 1 U of topoisomerase II was added and the reaction was allowed to proceed for 15 min at 37 °C. The reaction was quenched via the addition of loading buffer (1% sarkosyl, 0.025% bromophenol blue, and 5% glycerol) and was then analyzed by electrophoresis on a 1% agarose gel in TBE buffer for 30 min at 130 V. The gel was stained with SYBR Green I (Molecular Probes) for 30 min and was visualized under UV illumination and photographed on a Tanon Imager.

HeLa = assay: MTT cytotoxicity assay, HeLa; assay type: cell-based; settings: drug exposure 48 h, mean ± SD (n = 3), read-out: Cytotoxic activity (IC50) HeLa
Protocol: as §1

tubulin = assay: Tubulin assembly centrifugation assay in vitro; assay type: biochemical; settings: for Inhibition of microtubule polymerization compared with colchicine: colchicine as positive control
Protocol: Ligands were dissolved in DMSO at 20 mM and kept at −80 °C. Work solutions were done in DMSO and kept at −20 °C. The 50% inhibitory ligand concentration of tubulin assembly was determined with a centrifugation assay. Tubulin was equilibrated prior to use in 3.4 M glycerol, 1 mM EGTA, 0.1 mM GTP, pH 7.0, buffer through a 25 cm × 0.9 cm Sephadex G-25 column. Aggregates were removed by a centrifugation at 90000 g × 10 min in a TLA 120 rotor at 4 °C in an Optima TLX centrifuge. Tubulin concentration was determined as described by Andreu^42. Tubulin was kept at 4 °C, and 0.9 mM GTP and 6 mM MgCl2 were added to the sample. The solution was distributed in 200 μL polycarbonate tubes for the TL100 rotor. Growing concentrations of the ligands ranging from 0 to 25 μM were added to the samples (DMSO content of the samples, 2.5%), which were incubated for 30 min at 37 °C. Microtubules were separated from unassembled tubulin by a centrifugation at 90000 g × 10 min in a TLA100 rotor at 37 °C in an Optima TLX centrifuge. The supernatant containing unassembled tubulin was carefully collected and the microtubule pellet resuspended in 10 mM sodium phosphate buffer, pH 7.0, containing 1% SDS. Both supernatants and pellets were diluted 1:5 in the same buffer, and tubulin concentrations were measured fluorometrically (λexc = 280; λems = 323) using tubulin standards calibrated spectrophotometrically. The 50% inhibitory ligand concentration of tubulin assembly was determined with a centrifugation assay that measured the decrease in the concentrations of microtubules assembled in the presence of different concentrations of the compound.

HL-7702 = assay: MTT cytotoxicity assay, normal hepatic cell line HL-7702; assay type: cell-based; settings: human normal hepatic immortal cell line, drug exposure 48 h, mean ± SD (n = 3), read-out: Cytotoxic activity (IC50) HL-7702
Protocol: as §1

[6] = Homo sapiens, MCF7, drug exposure 48 h
[7] = Homo sapiens, BGC-823, drug exposure 48 h
[8] = Homo sapiens, A549, drug exposure 48 h

| SMILES | Extent of compound-induced PARP [1] [%] | Extent of compound-induced caspase 3 [1] [%] | Extent of compound-induced caspase 9 [1] [%] | IC50 at 48 h [2] [µM] | Effect on HeLa cell cycle (HeLa cells [3]) | Ratio of cell cycle arrest (of total cells) (HeLa cells [3]) | Total cell cycle arrest percentage (right peak of histogram) (HeLa cells [3]) [%] | Cellular depolymerization of microtubules [4] | Ratio of apoptotic Hela cells (of total cells) (HeLa cells [5]) | IC50 (MCF-7; [6]) [µM] | IC50 (BGC-823; [7]) [µM] | IC50 (A549; [8]) [µM] | IC50 (HeLa; Homo sapiens, HeLa, 48 h) [µM] | other results |
| --- | --- | --- | --- | --- | --- | --- | --- | --- | --- | --- | --- | --- | --- | --- |
| COc1ccc(N[C@@H]2c3cc4c(cc3[C@@H](c3cc(OC)c(OC)c(OC)c3)[C@H]3C(=O)OC[C@@H]32)OCO4)cc1Br [Compound 17, 4β-NH-(3-bromide-4-methoxyaniline)-4-deoxy-podophyllotoxin] | 27 | 37 | 0 | 62.4 ± 1.96 | arrested at the G2/M phase | less than 10% | 86.5 | able to cause cellular depolymerization of microtubules | less than 15% | 10.1 ± 0.18 | 7.91 ± 0.59 | 9.08 ± 0.26 |  | Extent of compound-induced BimEL [1]: 15% |
| COc1ccc(N[C@@H]2c3cc4c(cc3[C@@H](c3cc(OC)c(O)c(OC)c3)[C@H]3C(=O)OC[C@@H]32)OCO4)cc1Br [Compound 17′, 4β-NH-(3-bromide-4-methoxyaniline)-4-deoxy-4′-demethylepipodophyllotoxin] | 52 | 43 | 34 | 91.8 ± 1.57 | arrested at the G2/M phase |  |  |  |  | 6.51 ± 0.37 | 5.63 ± 0.12 |  |  | Extent of compound-induced ATR [1]: 26%; Inhibition of the catalytic activity of Topo II (kDNA decatenation) (topoisomerase II): completely inhibited |
| COc1ccc(N[C@@H]2c3cc4c(cc3[C@@H](c3cc(OC)c(O)c(OC)c3)[C@H]3C(=O)OC[C@@H]32)OCO4)cc1F [Compound 19′, 4β-NH-(3-fluoro-4-methoxyaniline)-4-deoxy-4′-demethylepipodophyllotoxin] |  |  |  | 188 ± 7.33 | arrested at the G2/M phase | less than 10% |  |  | less than 15% | 1.32 ± 0.24 | 0.4 ± 0.07 | 1.2 ± 0.25 | 0.56 ± 0.12 | Percentage of cell cycle arrest (right peak of histogram) (HeLa cells [3]): 84.9% |
| COc1ccc(N[C@@H]2c3cc4c(cc3[C@@H](c3cc(OC)c(O)c(OC)c3)[C@H]3C(=O)OC[C@@H]32)OCO4)cc1 [Compound 12′] |  |  |  | 28.6 ± 2.35 | arrested at the G2/M phase | less than 10% |  |  | less than 15% | 18.8 ± 0.24 | 36 ± 3.21 | 22.3 ± 1.21 | 24.46 ± 0.16 |  |
| COc1ccc(N[C@@H]2c3cc4c(cc3[C@@H](c3cc(OC)c(O)c(OC)c3)[C@H]3C(=O)OC[C@@H]32)OCO4)cc1Cl [Compound 18′, 4β-NH-(3-chloride-4-methoxyaniline)-4-deoxy-4′-demethylepipodophyllotoxin] | 54 | 69 | 35 | 127.4 ± 0.46 | arrested at the G2/M phase | less than 10% |  |  | less than 15% | 3.18 ± 0.51 | 1.77 ± 0.23 | 3.04 ± 0.23 | 1.97 ± 0.16 | Extent of compound-induced ATR [1]: 46% |
| COc1ccc(NC2c3cc4c(cc3C(c3cc(OC)c(OC)c(OC)c3)C3C(=O)OCC23)OCO4)cc1F (stereo not drawn) [Compound 19, 4β-NH-(3-fluoro-4-methoxyaniline)-4-deoxy-podophyllotoxin] |  |  |  |  | arrested at the G2/M phase | less than 10% | 96.2 | able to cause cellular depolymerization of microtubules | less than 15% |  |  |  |  | GI50 (tubulin; centrifugation assay, ligand 0 to 25 μM, 30 min at 37 °C, read-out: GI50, inhibition of microtubule polymerization (tubulin assembly)): < 1 µM; Inhibition of microtubule polymerization compared with colchicine (tubulin): effects higher than colchicine; BimEL level (pro-apoptotic protein) [1]: significantly increased; IC50 (HeLa): 0.72 ± 0.08 µM; IC50 (HL-7702): 55.4 ± 0.64 µM; Percentage of cell cycle arrest (right peak of histogram) (HeLa cells [3]): 83.0%; Appearance of microtubules after treatment [4]: greatly disrupted and disappeared; IC50 (MCF-7; drug exposure 48 h): 2.01 ± 0.21 µM; IC50 (BGC-823; drug exposure 48 h): 1.61 ± 0.11 µM; IC50 (A549; drug exposure 48 h): 1.76 ± 0.07 µM |
| COc1ccc(N[C@@H]2c3cc4c(cc3[C@@H](c3cc(OC)c(OC)c(OC)c3)[C@H]3C(=O)OC[C@@H]32)OCO4)cc1Cl [Compound 18, 4β-NH-(3-chloride-4-methoxyaniline)-4-deoxy-podophyllotoxin] | 84 | 56 | 50 | 79 ± 2.33 | arrested at the G2/M phase | less than 10% | 94.4 | able to cause cellular depolymerization of microtubules | less than 15% | 3.54 ± 0.14 | 3.52 ± 0.23 | 3.72 ± 0.29 |  | Inhibition of microtubule polymerization compared with colchicine (tubulin): effects higher than colchicine; Extent of compound-induced BimEL [1]: 58%; BimEL level (pro-apoptotic protein) [1]: significantly increased; Appearance of microtubules after treatment [4]: greatly disrupted and disappeared |
